Assay results taken from a melting point compilation (Tetko et al.; mined from patent text by program, amines drawn as free bases though some values may be those of a salt).

Structure (SMILES) | melting point
COC(=O)C(O)C(CC(C)C)NCc1ccccc1 (stereo unspecified) | 89 to 90 °C
CCOC(=O)c1cc(N)c(N)nc1C(=O)OCC | 143 to 146 °C
CNS(=O)(=O)CCc1ccc2[nH]cc(CCN=Cc3ccccc3)c2c1 | 146 to 148 °C
C[Si](C)(C)CCOC(=O)c1cccc(NC(=O)NCC(=O)O)c1 | 173 °C
Cc1cccc(-n2nc(C(F)(F)F)cc2-c2ccc(S(C)(=O)=O)c(F)c2)c1 | 129 to 130 °C
COC(=O)c1ccc(N2C(=O)c3ccccc3C2=O)cc1O | 218 to 219 °C
CCOC(=S)N[C@@H](C)C(=O)O | 74 to 78 °C
CC(=O)Nc1cc(O)c(C(=O)NC2CCN(Cc3ccccc3)CC2)cc1[N+](=O)[O-] | 220 to 222 °C
COC(=O)CCc1cc2cc(Cl)ccc2n1S(=O)(=O)c1cccc(OC)c1 | 106 to 109 °C
COCc1nnc2ccc(-c3ccccc3)nn12 | 133 °C
CN(C=O)C1C(O)CC2C3CCc4cc(O)ccc4C3CCC21C (stereo unspecified) | 272 to 276 °C
NC(=O)c1c(C(=O)O)cnn1-c1ccc(Br)cc1 | 251 to 252 °C
CC(C)(C)c1cc(CCC2(CCc3cc(C(C)(C)C)c(O)c(C(C)(C)C)c3)NC(=O)NC2=O)cc(C(C)(C)C)c1O | 218 to 220 °C
C=CCOC(=O)c1ccc(N=C(NC)c2ccc(OC)c(C34CC5CC(CC(C5)C3)C4)c2)cc1 | 77 to 79 °C
Cc1ccc2[nH]c(=O)n(CCCN3CCN(C(c4ccccc4)c4ccccc4)CC3)c2c1 | 196 °C
Cc1ccc(S(=O)(=O)OCC2Cc3cc(C(F)(F)F)cc(Br)c3O2)cc1 (stereo unspecified) | 95 to 97 °C
NS(=O)(=O)c1ccc(-c2noc(-c3cnn4ccc(-c5ccc(C(F)(F)F)cc5)nc34)n2)s1 | 251 °C
Cn1cc(-c2c(-c3ccccc3F)nn3ccncc23)ccc1=O | 193 to 194 °C
CS(=O)(=O)c1ccc(-c2cnn(-c3ccc(F)cc3)c(=O)c2COc2ccc(F)cc2)cc1 | 65 to 80 °C
CC1=C(/C=C/C(C)=C/C=C\c2ccc(C(=O)O)cc2)C(C)(C)CCC1 | 179 °C
COc1ccc(NC(=O)c2cc(O[Si](C)(C)C(C)(C)C)ccc2NC(=O)c2ccc(C(C)(C)C)cc2)cc1 | 207 °C
CC(=O)OCc1ccc(C=Cc2csc3ccccc23)s1 | 66 to 68 °C
O=C1c2cccc(O)c2Cc2cccc(O)c21 | 231 to 233 °C
Nc1ncc(-c2ccc(=O)[nH]n2)c(-c2cccnc2)n1 | 256 °C

Structure (SMILES) | melting point
C(#Cc1cnc2ccccc2c1)CCN1CC=C(c2ccccc2)CC1 | 94.3 to 95.8 °C
Cc1cc2c(cc1[N+](=O)[O-])C(=O)CC(C)O2 (stereo unspecified) | 110 to 113 °C
N#Cc1cc(NCc2cc3c(cc2O)CCO3)cs1 | 138 to 139 °C
COc1ccc(CN(CCN(C)CCCCNC(=O)NCCCOc2cccc(CN3CCCCC3)c2)c2ccccn2)cc1 | 68 to 72 °C
Cc1ccc(N(C=C(C#N)C#N)N=C(C#N)C#N)cc1 | 168 to 169 °C
O=C(O)CN1C(=O)C(=O)N(Cc2cccc([N+](=O)[O-])c2)C1=S | 188 °C
Cc1oc2c(NC(=O)c3c(Cl)cccc3Cl)cc(NC(N)=O)cc2c1C | > 250 °C
NC(=O)N(O)CCNC(=O)Cc1cccc(Oc2ccccc2)c1 | 150 to 152 °C
CCOC(=O)c1cc(Br)c(C(=O)OCC)cc1F | 30 °C
COc1c(C)c(C)c(OC)c(C(O)CN)c1C (stereo unspecified) | 110 to 112 °C
Cc1oc(COc2ccc(/C=C/C=O)cc2)nc1-c1ccccc1 | 144 to 146 °C
CCn1c(=O)c(-c2cc(OC)cc(OC)c2)cc2cnc(Nc3ccncc3)nc21 | 305 to 307 °C
O=C1OC2(CCC(N3CCN(c4ccc(F)cc4)CC3)CC2)c2cc(F)ccc21 (stereo unspecified) | > 250 °C
CCOC(=O)C(=CNc1ncnc2ccccc12)C(=O)OCC | 115 to 117 °C
CCOC(=O)CC(=O)CC(=O)c1cccnc1 | 187 to 189 °C
CCOC(=O)C(=O)N1CCN(c2ccccc2C(C)(C)C)CC1 | 95 to 98 °C
O=C(C1CCCC1)[C@H]1CCn2c(cc3ccccc32)C1 | 69 °C
CC(C)(C)[C@@H](CO)NC(=O)[C@@H](CC(=O)O)n1ccc(-c2ccc(-c3ccncc3)cc2)c1 | 192 to 194 °C
CNC(=O)N(N=Cc1ccccc1)c1nnc(C(C)(C)C)s1 | 115 to 116 °C
CCCCCNc1nc2ccccc2n1C1CCN(C2(c3ccccc3)CCCCCC2)CC1 | 156 to 159 °C
Cc1ccc(C=NC2CCN(c3cc4c(cc3F)c(=O)c(C(=O)O)cn4-c3ccc(F)cc3)C2)cc1 (stereo unspecified) | 233 to 234 °C
O=C1c2cccc3cc(F)cc(c23)C(=O)N1O | 244 to 247 °C
CC(C)(C)OC(=O)N1CCN(c2ccc(NC(=O)Nc3nc(C(C)(C)C)cs3)cc2)CC1 | 123 to 124 °C
COc1cc2c(cc1OCc1ccccc1)CCN(Cc1ccccn1)C2 | 73 to 74 °C

Structure (SMILES) | melting point
CC(C)(C)c1cc(C(=O)N2CC(O)C2)cc(C(C)(C)C)c1O | 185 to 189 °C
Nc1nc(N)nc(-c2ccc(-c3ccc([N+](=O)[O-])cc3)cc2)n1 | > 250 °C
CCCCc1ccc(NCc2ccc(N(C)C)cc2)cc1 | 60 to 61 °C
CCc1c(-c2ccc(O)cc2)c2c(CN(C)C)cc3cccc1n32 | 176 to 178 °C
CCOc1cc2cc(C(=O)OC)c(C(=O)OC)c(-c3ccnc(Br)c3)c2cc1OC | 203 to 204 °C
Cc1ccc(C(=O)Nc2ccc(CN3CCCC3)c(C(F)(F)F)c2)cc1-c1ccc2cnncc2c1 | 168 to 170 °C
O=C(Nc1nccs1)C(CC1CCCC1)c1ccc(C(F)(F)F)c(F)c1 (stereo unspecified) | 194 to 195 °C
CCN(CC)CCc1c[nH]c2ccc(N(CC)S(=O)(=O)c3ccc4ccccc4c3)cc12 | 49 to 50 °C
Clc1ccc(C2(Cl)c3ccc(Cl)cc3-c3ncncc32)cc1 (stereo unspecified) | 152 to 153 °C
CCc1cc2c(s1)-n1c(C)nnc1C(N)N=C2c1ccccc1Cl (stereo unspecified) | 130 to 131 °C
CC(C)CCOc1ccc(S(=O)(=O)C2(C(=O)NO)CCN(Cc3ccccc3)CC2)cc1 | 106 °C
CC=C(NC(=O)CCC1CCCC1)C(=O)O | 180 to 182 °C
NC(=O)N1C(=O)C(=C(OC(=O)c2ccccn2)c2cccs2)c2cc(F)c(Cl)cc21 | 184 to 185 °C
CCOC(=O)c1[nH]cc2c1NC1=C(C(=O)CCC1)C2c1cnc(Sc2nc3ccccc3[nH]2)s1 (stereo unspecified) | 194 °C
COc1ccccc1NC(=O)c1cccc(CO)c1 | 102 °C
CC1(C)CC(C2=NN(CC#N)C(=O)N(/N=C/c3cncc(F)c3)C2)=NO1 | 195 to 197 °C
Fc1ccc2occ(N3CCN(C4CCN(c5ccc(F)c6cccnc56)CC4)CC3)c2c1 | 187 to 189 °C
COCCOCC(=O)Nc1c([N+](=O)[O-])cnn1-c1c(Cl)cc(C(F)(F)F)cc1Cl | 103 to 105 °C
C=CCNC(=O)CC(=O)C=Cc1ccccc1[N+](=O)[O-] | 128 to 129 °C
c1cc2nc3c(n2nc1N1CCCC1)CCCC3 | 161 °C
CCCCCCNC(=O)c1cnc2cccc(C)n2c1=O | 116 to 118 °C
CC(c1ccc(-c2ccccc2)s1)N(O)C(N)=O (stereo unspecified) | 150 to 152 °C
CCOC(=O)CCc1ccc(O)c(OCc2ccccc2)c1 | 60 to 61 °C
